Source: PMC11448502, “Cryo-EM structures of the human P2X1 receptor reveal subtype-specific architecture and antagonism by supramolecular ligand-binding” (Nature Communications, 2024)
Where a chain is given by its changes, count along the chain named. Values joined by “and” are separate entries in the source; they are usually repeats but may differ in a detail not shown here. Equal entries are not always repeated.

Legend:
Assay in all cases: NF449 inhibition dose response (IC50), TEVC in oocytes
Assay type in all cases: cell-based
[1] = target: T1, hP2X1 R139A (Homo sapiens, UniProt P51575, R139A)
T1 construct: hP2X1 mRNA that was made from linearized full-length wild-type or mutant pcDNA 3.1x; expressed in transfected cells; host or cells: Xenopus laevis oocytes (mRNA injection)
T1 sequence (P51575 1-399 R139A): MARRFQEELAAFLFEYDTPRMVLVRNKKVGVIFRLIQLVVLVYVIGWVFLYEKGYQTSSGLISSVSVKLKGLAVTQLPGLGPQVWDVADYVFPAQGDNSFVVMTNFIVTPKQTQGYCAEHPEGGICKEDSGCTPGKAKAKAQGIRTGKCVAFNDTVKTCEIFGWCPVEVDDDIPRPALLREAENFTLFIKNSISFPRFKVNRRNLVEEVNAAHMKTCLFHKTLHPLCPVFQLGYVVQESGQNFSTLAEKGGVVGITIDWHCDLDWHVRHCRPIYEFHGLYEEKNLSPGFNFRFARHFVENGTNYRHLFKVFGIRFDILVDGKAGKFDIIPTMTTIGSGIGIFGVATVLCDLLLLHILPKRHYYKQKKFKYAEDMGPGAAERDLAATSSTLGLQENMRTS
Method: (§1) Oocytes were purchased defolliculated from Ecocyte Bioscience in Barth’s Solution (88 mM NaCl, 1 mM KCl, 0.82 mM MgSO4, 0.33 mM Ca(NO3)2, 0.41 mM CaCl2, 2.4 mM NaHCO3, 5 mM Tris-HCl) supplemented with penicillin (100 U/mL) and streptomycin (100 µg/mL). Xenopus laevis oocytes were then injected with 50 nL of 100 ng/μL hP2X1 mRNA that was made from linearized full-length wild-type or mutant pcDNA 3.1x according to the protocol provided in the mMessage mMachine kit (Invitrogen). Injected oocytes were allowed to express for ~20 hours at 18 °C before recording was performed.
(§2) Data acquisition was performed using the Oocyte Clamp OC-725C amplifier and pClamp 8.2 software. Buffers were applied using a gravity fed RSC-200 Rapid Solution Changer that flows at ~5 mL/min. All experiments use Sutter filamented glass 10 cm in length with an inner diameter of 0.69 mm and an outer diameter of 1.2 mm to impale oocytes and clamp the holding voltage at −60 mV. Experiments were recorded in buffer containing 10 mM HEPES (pH 7.4), 140 mM NaCl, 5 mM KCl, 2 mM CaCl2, 2 mM MgCl2, and 10 mM glucose.
(§3) To test a dilution series of an antagonist at discrete concentrations, 10 µM ATP (2 mM ATP for K309A only) was first applied to evoke an initial maximum current. The oocyte was then washed with buffer for one minute, followed by one minute application of an antagonist test-concentration, and concluded by co-application of the same test concentration with 10 µM ATP (2 mM ATP for K309A). The antagonized signal was then normalized against the initial ATP excitatory signal. Each test concentration was performed in triplicate across different oocytes. The data was then fit to a nonlinear regression named “[inhibitor] vs. response – Variable slope (four parameters)” in Prism 9 to produce a sigmoidal curve and afford an IC50 value. Each singular condition was used to generate an average which is reported plus or minus its standard deviation between three discrete trials.

[2] = target: T2, hP2X1 K136A/R139A (Homo sapiens, UniProt P51575, K136A/R139A); conditions: for Normalized Current: hP2X1 K136A/R139A
T2 construct: hP2X1 mRNA that was made from linearized full-length wild-type or mutant pcDNA 3.1x; expressed in transfected cells; host or cells: Xenopus laevis oocytes (mRNA injection)
T2 sequence (P51575 1-399 K136A/R139A): T1 sequence (P51575 1-399 R139A) with K136A
Method: as §1, §2, §3

[3] = target: T3, hP2X1 R292A (Homo sapiens, UniProt P51575, R292A); conditions: for Normalized Current: hP2X1 R292A
T3 construct: hP2X1 mRNA that was made from linearized full-length wild-type or mutant pcDNA 3.1x; expressed in transfected cells; host or cells: Xenopus laevis oocytes (mRNA injection)
T3 sequence (P51575 1-399 R292A): T1 sequence (P51575 1-399 R139A) with A139R, R292A
Method: as §1, §2, §3

[4] = target: T4, hP2X1 K309A (Homo sapiens, UniProt P51575, K309A); conditions: for Normalized Current: hP2X1 K309A
T4 construct: hP2X1 mRNA that was made from linearized full-length wild-type or mutant pcDNA 3.1x; expressed in transfected cells; host or cells: Xenopus laevis oocytes (mRNA injection)
T4 sequence (P51575 1-399 K309A): T1 sequence (P51575 1-399 R139A) with A139R, K309A
Method: as §1, §2, §3

SMILES: O=C(Nc1cc(C(=O)Nc2ccc(S(=O)(=O)O)cc2S(=O)(=O)O)cc(C(=O)Nc2ccc(S(=O)(=O)O)cc2S(=O)(=O)O)c1)Nc1cc(C(=O)Nc2ccc(S(=O)(=O)O)cc2S(=O)(=O)O)cc(C(=O)Nc2ccc(S(=O)(=O)O)cc2S(=O)(=O)O)c1 [NF449, 4,4’,4”,4’’’-(carbonylbis(imino-5,1,3-benzenetriylbis(carbonylimino)))tetrakis-benzene-1,3-disulfonic acid]
- Normalized Current ([1]; [NF449] 1.600E-09 M): 0.9525 and 0.8503 and 0.8408
- Normalized Current ([1]; [NF449] 2.000E-07 M): 0.2675 and 0.1529
- Normalized Current ([1]; [NF449] 3.200E-10 M): 1.089 and 0.9841 and 0.9268
- Normalized Current ([1]; [NF449] 4.000E-08 M): 0.6975 and 0.6688 and 0.5159
- Normalized Current ([1]; [NF449] 5.000E-06 M): 0.000000
- Normalized Current ([1]; [NF449] 8.000E-09 M): 0.8121 and 0.8025 and 0.7834
- decrease in inhibitory potency of NF449 ([2]; hP2X1 K136A/R139A vs wild-type): 990 fold
- Normalized Current ([2]; [NF449] 1.000E-06 M): 0.4929 and 0.4694 and 0.363
- Normalized Current ([2]; [NF449] 2.000E-07 M): 0.8009 and 0.7536 and 0.7046
- Normalized Current ([2]; [NF449] 4.000E-08 M): 1.069 and 1.018 and 0.8793
- Normalized Current ([2]; [NF449] 6.246E-06 M): 0.148 and 0.1446 and 0.1086
- Normalized Current ([2]; [NF449] 8.000E-09 M): 1.104 and 1.01 and 0.886
- reduction in inhibitory potency of NF449 ([3]; hP2X1 R292A vs wild-type): 31 fold
- Normalized Current ([3]; [NF449] 1.000E-06 M): 0.000000
- Normalized Current ([3]; [NF449] 1.600E-09 M): 1.038 and 1.012 and 0.9446
- Normalized Current ([3]; [NF449] 2.000E-07 M): 0.09965 and 0.08304 and 0.07993
- Normalized Current ([3]; [NF449] 3.200E-10 M): 1.08 and 0.9654 and 0.955
- Normalized Current ([3]; [NF449] 4.000E-08 M): 0.4671 and 0.3945 and 0.2595
- Normalized Current ([3]; [NF449] 8.000E-09 M): 0.8305 and 0.7889 and 0.7059
- reduction in inhibitory potency (IC50) of NF449 ([4]; hP2X1 K309A vs wild-type): 5 fold
- Normalized Current ([4]; [NF449] 1.600E-09 M): 0.804 and 0.6904 and 0.632
- Normalized Current ([4]; [NF449] 3.200E-10 M): 1.021 and 0.9283 and 0.8888
- Normalized Current ([4]; [NF449] 6.400E-11 M): 1.062 and 1.037 and 0.9009
- Normalized Current ([4]; [NF449] 8.000E-09 M): 0.3679 and 0.3618 and 0.2758
